{
  "source": "patent US20090060944A1",
  "about": "“Enhancer Of The Effect Of Adrenocorticoid,Comprising Gum Arabic” (priority 2004, published 2009)",
  "type_in_all_cases": "in vivo, Male Wistar strain rats",
  "key": {"[1]": {"system": "GM-induced nephritis rats", "assay": "Organ wet weight / body weight ratio in GM-induced nephritis rats", "conditions": "for Adrenal gland weight / Kidney weight / Liver weight / Spleen weight / Thymus weight: 8th day, mean ± S.E. of 8 to 9 rats, GM 80 mg/kg i.p., 7.5% GA via drinking water", "procedure": "(§1) Gum Arabic was dissolved in water and filtered. The filtrate was spray-dried at about 120° C. to give the GA used in this experiment. GA was dissolved in tap water to prepare a 7.5% GA solution (7.5 g/100 mL, 7.5% GA). The 7.5% GA solution was used for oral administration in drinking water. Gentamicin sulfate (GM) was purchased from Sigma Chemical Co. and used as its saline solution. Prednisolone (PRD) was purchased from Sigma Chemical Co.\n(§2) Male Wistar strain rats weighing 200-220 g (n=8 to 9 per group) were provided by SLC (Japan SLC, Hamamatsu). They were maintained in an air-conditioned room with lighting from 7 a.m. to 7 p.m. The room temperature (about 23° C.) and humidity (about 60%) were controlled automatically. They were kept for one week before treatment. Laboratory chows (Labo MR Stock, Nihon Nosan Kogyo K.K., Yokohama) and drinking water were freely available.\n(§3) Nephritis was induced in rats by daily intraperitoneal injections of GM (80 mg/kg, i.p.) at 10:00 a.m. for 8 consecutive days. Animals injected with saline (1 mL/kg, i.p.) served as normal control. GA (7.5% GA) via the drinking water was administered for 8 consecutive days.\n(§4) Rats were randomly assigned to the following eight groups of 8 to 9 rats each:\n(§5) Group 1 (Normal): received daily intraperitoneal injections of saline (1 mL/kg, i.p.) for 8 days with tap water as drinking water.\n(§6) Group 2 (7.5% GA): received daily saline (1 mL/kg, i.p.) and 7.5% GA via drinking water for 8 days.\n(§7) Group 3 (GM): received daily GM (80 mg/kg, i.p.) for 8 days with tap water as drinking water.\n(§8) Group 4 (GM+7.5% GA): received daily GM (80 mg/kg, i.p.) and 7.5% GA via the drinking water for 8 days.\n(§9) Group 5 (GM+PRD/water): received daily PRD/water (2 mg/kg, p.o.) at 1 hr before daily GM (80 mg/kg, i.p.) administration for 8 days with tap water as drinking water.\n(§10) Group 6 (GM+PRD/water+7.5% GA): received daily PRD/water (2 mg/kg, p.o.) at 1 hr before daily GM (80 mg/kg, i.p.) administration and 7.5% GA via the drinking water for 8 days.\nOn the last day, the organs (adrenal gland, thymus, spleen, kidney and liver) were isolated from the rats, and the ratio of each organ wet weight (mg)/body weight (100 g) was determined.\n(§11) The experimental data were tested for statistical significant differences by means of Bonferroni/Dunn's method (Multiple Range Test).\n(§12) PRD (2 mg/kg, p.o.) was orally administered in a form of suspension (0.2 mL/100 g weight of rat) in tap water (PRD/water) 1 hr before GM (80 mg/kg, i.p.) administration to rats of group 5 (GM+PRD/water) and group 6 (GM+PRD/water+7.5% GA). Group 5 received tap water as drinking water. Group 6 received 7.5% GA as drinking water."}, "[2]": {"system": "GM-induced nephritis rats", "assay": "BUN, serum creatinine and creatinine clearance in GM-induced nephritis rats", "conditions": "8th day; for Effect on BUN level (in words): GM-induced nephritis rats; for BUN / Creatinine clearance / Serum creatinine: mean ± S.E. of 8 to 9 rats", "procedure": "as §1, §2, §3, §4, §5, §6, §7, §8, §9, §10\n(§13) 24 hr urine samples were obtained by keeping each animal in an individual metabolic cage for 24 hr at 10:00 a.m. on the 8th day. Rats were fasted for 1 day before urine collection. The collected urine was then centrifuged at 1,600×g for 10 min, and the supernatant was used for protein determination. Immediately after the urine collection, blood sample was taken from abdominal veins. The blood was centrifuged at 1,600×g for 10 min to give serum for the determination of blood urea nitrogen (BUN), serum creatinine and creatinine clearance.\n(§14) The urinary protein excretion was determined by the method of Kingsbury et al (The Journal of Laboratory and Clinical Medicine, 11, 981-989, 1926) and expressed as mg/day. Briefly, a 3% solution of sulfosalicylic acid was added to a diluted urine sample, and placed at room temperature for 10 minutes. Then concentrations of urinary protein were determined from absorbance at 400 nm, and the urinary protein excretion (mg/day) was calculated from the volume of 24 hr urine. Commercial kits (Wako Pure Chemical Industries, Ltd.) were used to assay BUN, creatinine and creatinine clearance in serum with the following assay kits: Urea nitrogen B and Creatinine.\nas §11, §12"}, "[3]": {"system": "GM-induced nephritis rats", "assay": "Urine volume and urinary protein in GM-induced nephritis rats", "conditions": "8th day; for Effect on urinary protein (in words) / Effect on urine volume (in words): GM-induced nephritis rats; for Urinary protein / Urine volume: mean ± S.E. of 8 to 9 rats, 7.5% GA via drinking water", "procedure": "as §1, §2, §3, §4, §5, §6, §7, §8, §9, §10, §13, §14, §11, §12"}, "[4]": {"conditions": "Table 1, GM 80 mg/kg i.p. 8 days, 7.5% GA via drinking water, 7.5% GA group got saline, no GM"}, "[5]": {"conditions": "Table 4, GM 80 mg/kg i.p., PRD 2 mg/kg p.o. 1 hr before GM, 7.5% GA via drinking water"}, "[6]": {"conditions": "Table 2, GM 80 mg/kg i.p. 8 days, 7.5% GA group got saline, no GM"}, "[7]": {"conditions": "Table 5, GM 80 mg/kg i.p., PRD 2 mg/kg p.o. 1 hr before GM"}},
  "data": [
    {"molecule": "C[C@]12C=CC(=O)C=C1CC[C@@H]1[C@@H]2[C@@H](O)C[C@@]2(C)[C@H]1CC[C@]2(O)C(=O)CO", "note": "[PRD, Prednisolone]", "values": [
      {"measurement": "Effect on weight of thymus (in words)", "setting": "[1]; rat, in vivo", "result": "further decreased"},
      {"measurement": "Effect on BUN level (in words)", "setting": "[2]", "result": "significant protective effect on increments of BUN level"},
      {"measurement": "Effect on urinary protein (in words)", "setting": "[3]", "result": "significantly inhibited the increment of urinary protein"},
      {"measurement": "Effect on urine volume (in words)", "setting": "[3]", "result": "did not show any effects on the increment of urine volume"}
    ]},
    {"molecule": "Gentamicin sulfate [GM]", "values": [
      {"measurement": "Effect on kidney weight ratio (in words)", "setting": "[1]; GM-induced nephritis rats, last day", "result": "slightly increased"},
      {"measurement": "Effect on weight of thymus (in words)", "setting": "[1]; GM-induced nephritis rats, last day, side-effect of PRD", "result": "tendency to decrease"},
      {"measurement": "Adrenal gland weight", "setting": "[1]; Table 3", "result": "23.5 ± 1.4 mg/100 g of body weight"},
      {"measurement": "Kidney weight", "setting": "[1]; Table 3", "result": "0.89 ± 0.03 g/100 g of body weight"},
      {"measurement": "Liver weight", "setting": "[1]; Table 3", "result": "2.95 ± 0.07 g/100 g of body weight"},
      {"measurement": "Spleen weight", "setting": "[1]; Table 3", "result": "209.4 ± 10.8 mg/100 g of body weight"},
      {"measurement": "Thymus weight", "setting": "[1]; Table 3", "result": "223.5 ± 15.2 mg/100 g of body weight"},
      {"measurement": "Adrenal gland weight", "setting": "[1]; Table 6, PRD 2 mg/kg p.o.", "result": "23.5 ± 1.4 mg/100 g of body weight"},
      {"measurement": "Kidney weight", "setting": "[1]; Table 6, PRD 2 mg/kg p.o.", "result": "0.89 ± 0.03 g/100 g of body weight"},
      {"measurement": "Liver weight", "setting": "[1]; Table 6, PRD 2 mg/kg p.o.", "result": "2.95 ± 0.07 g/100 g of body weight"},
      {"measurement": "Spleen weight", "setting": "[1]; Table 6, PRD 2 mg/kg p.o.", "result": "209.4 ± 10.8 mg/100 g of body weight"},
      {"measurement": "Thymus weight", "setting": "[1]; Table 6, PRD 2 mg/kg p.o.", "result": "223.5 ± 15.2 mg/100 g of body weight"},
      {"measurement": "Effect on BUN level (in words)", "setting": "[2]", "result": "markedly increased"},
      {"measurement": "BUN", "setting": "[2]; Table 1, GM 80 mg/kg i.p. 8 days, 7.5% GA via drinking water 8 days, 7.5% GA group got saline, no GM", "result": "78.0 ± 11.9", "unit": "mg/dL"},
      {"measurement": "Creatinine clearance", "setting": "[2]; [4]", "result": "0.19 ± 0.10", "unit": "mL/min"},
      {"measurement": "Serum creatinine", "setting": "[2]; [4]", "result": "2.36 ± 0.41", "unit": "mg/dL"},
      {"measurement": "BUN", "setting": "[2]; [5]", "result": "78.0 ± 11.9", "unit": "mg/dL"},
      {"measurement": "Creatinine clearance", "setting": "[2]; [5]", "result": "0.19 ± 0.10", "unit": "mL/min"},
      {"measurement": "Serum creatinine", "setting": "[2]; [5]", "result": "2.36 ± 0.41", "unit": "mg/dL"},
      {"measurement": "Effect on urinary protein (in words)", "setting": "[3]", "result": "increased"},
      {"measurement": "Effect on urine volume (in words)", "setting": "[3]", "result": "increased"},
      {"measurement": "Urinary protein", "setting": "[3]; [6]", "result": "26.7 ± 3.3", "unit": "mg/24 hr"},
      {"measurement": "Urine volume", "setting": "[3]; [6]", "result": "43.1 ± 4.3", "unit": "mL/24 hr"},
      {"measurement": "Urinary protein", "setting": "[3]; [7]", "result": "26.7 ± 3.3", "unit": "mg/24 hr"},
      {"measurement": "Urine volume", "setting": "[3]; [7]", "result": "43.1 ± 4.3", "unit": "mL/24 hr"}
    ]}
  ]
}
